Test results as given in PMC9697031, “Identification of Novel Diarylpyrimidines as Potent HIV-1 Non-Nucleoside Reverse Transcriptase Inhibitors by Exploring the Primer Grip Region” (Pharmaceuticals, 2022).

Assays:
[1] = system: WT HIV-1 strain (IIIB); assay: Anti-HIV-1 (IIIB, wild-type) activity in MT-4 cells, MTT method; assay type: cell-based; details: for EC50: Human immunodeficiency virus 1, IIIB, MT4, read-out: EC50 IIIB, MT-4 cells, WT HIV-1 IIIB, MTT; for SI (IIIB): selectivity index, CC50/EC50 (IIIB)
Description: (§1) Stock solutions (10 × final concentration) of test compounds were added in 25 μL volumes to two series of triplicate wells to allow simultaneous evaluation of their effects on mock- and HIV-infected cells at the beginning of each experiment.

[2] = system: HIV-2 strain (ROD); assay: Anti-HIV-2 (ROD) activity in MT-4 cells, MTT method; assay type: cell-based; details: Human immunodeficiency virus 2, MT4, read-out: EC50 ROD
Description: as §1

[3] = in vitro; details: human
Description: as §1

[4] = system: HIV-1 L100I mutant strain; assay: Anti-HIV-1 mutant strain L100I in MT-4 cells, MTT method; assay type: cell-based; details: Human immunodeficiency virus 1, MT4, read-out: EC50 L100I
Description: (§2) Evaluation of the anti-HIV activity and cytotoxicity of the target compounds was performed by utilizing the MTT method in MT-4 cells described previously [37]. Stock solutions (10 × final concentration) of test compounds were added in 25 μL volumes to two series of triplicate wells to allow simultaneous evaluation of their effects on mock- and HIV-infected cells at the beginning of each experiment. Serial five-fold dilutions of test compounds were prepared directly in flat-bottomed 96-well microtiter trays by adding 100 μL medium to the 25 μL stock solution and transferring 25 μL of this solution to another well that contained 100 μL medium using a Biomek 3000 robot (Beckman Instruments, Fullerton, CA). Each sample includes untreated control HIV- and mock-infected cell samples. WT HIV-1 strain (IIIB), HIV-1 drug-resistant strains including L100I, K103N, Y181C, Y188L, E138K, K103N/Y181C, F227L/V106A or HIV-2 strain (ROD) stock (50 μL) at 100–300 CCID50 (50% cell culture infectious dose) or culture medium was added to either the infected or mock-infected wells of the microtiter tray. Mock-infected cells were used to evaluate the effect of test compounds on uninfected cells to evaluate their cytotoxicity. Exponentially growing MT-4 cells were centrifuged for 5 min at 1000 rpm, and the supernatant was discarded. […] After infection five days, the viability of mock- and HIV-infected cells was examined spectrophotometrically by the MTT assay.

[5] = system: HIV-1 K103N mutant strain; assay: microbe, parasite or virus in culture; assay type: cell-based; details: for EC50: Human immunodeficiency virus 1, MT4, read-out: EC50 K103N; for Resistance Folds K103N: RF, EC50 (K103N)/EC50 (WT)
Description: as §1

[6] = system: HIV-1 Y181C mutant strain; assay: Anti-HIV-1 mutant strain Y181C in MT-4 cells, MTT method; assay type: cell-based; details: Human immunodeficiency virus 1, MT4, read-out: EC50 Y181C
Description: as §2

[7] = system: HIV-1 Y188L mutant strain; assay: Anti-HIV-1 mutant strain Y188L in MT-4 cells, MTT method; assay type: cell-based; details: Human immunodeficiency virus 1, MT4, read-out: EC50 Y188L
Description: as §2

[8] = system: HIV-1 E138K mutant strain; assay: Anti-HIV-1 mutant strain E138K in MT-4 cells, MTT method; assay type: cell-based; details: Human immunodeficiency virus 1, MT4, read-out: EC50 E138K
Description: as §2

[9] = system: HIV-1 F227L + V106A mutant strain; assay: Anti-HIV-1 double mutant F227L + V106A in MT-4 cells, MTT method; assay type: cell-based; details: Human immunodeficiency virus 1, MT4, read-out: EC50 F227L + V106A
Description: as §2

[10] = system: HIV-1 RES056 (K103N/Y181C) mutant strain; assay: Anti-HIV-1 double mutant RES056 in MT-4 cells, MTT method; assay type: cell-based; details: Human immunodeficiency virus 1, MT4, read-out: EC50 RES056
Description: as §2

[11] = biological target: T1, HIV-1 WT RT (Human immunodeficiency virus type 1 group M subtype B, UniProt P04585); assay: HIV-1 RT inhibition assay (Roche kit, ELISA); assay type: biochemical
T1 construct: The RT is a heterodimer consisting of two subunits, p66 (560 residues) and p51 (440 residues); purchased Roche
Description: An HIV-1 reverse transcriptase (RT) assay kit produced by Roche was used for the RT inhibition assay. All the reagents for performing the RT reaction came from the kit, and the ELSIA procedures for RT inhibition assay were conducted following the description in the kit protocol [38]. […] Then used, a washing buffer was used to remove the unbound dNTPs, and an anti-DIG-POD working solution was added. […] The unbound anti-DIG-PODs were removed, and the peroxidesubstrate (ABST) solution was added to the MTPs. A colored reaction proceeds during the cleavage of the substrate catalyzed by POD. […] The percentage inhibitory activity of RT inhibitors was calculated by the formula given below: % Inhibition = [O.D. value with RT but without inhibitors − O.D. value with RT and inhibitors]/[O.D. value with RT and inhibitors − O.D. value without RT and inhibitors].

Structure (SMILES) | EC50 [1] | SI (IIIB) [1] | EC50 [2] | CC50 at 5 days [3] | EC50 [4] | EC50 [5] | Resistance Folds K103N [5] | EC50 [6] | EC50 [7] | EC50 [8] | EC50 [9] | EC50 [10] | IC50 [11] | melting point
Cc1cc(COc2cncc(C#N)c2)cc(C)c1Oc1ccnc(Nc2ccc(C#N)cc2)n1 [TF13, 5-((4-((2-((4-cyanophenyl)amino)pyrimidin-4-yl)oxy)-3,5-dimethylbenzyl)oxy) nicotinonitrile] | 19.4 ± 3.4 nM | 246.4 | > 4770 nM | 4770 ± 1560 nM | 125 ± 5.9 nM | 28 ± 2.5 nM | 1.47 | 265 ± 24.6 nM | 1050 ± 66.8 nM | 57.7 ± 11.6 nM | 1650 ± 19.9 nM | 1180 ± 68.2 nM | 59 ± 1 nM | 195 to 198 °C
Cc1cc(COc2ccc(CO)cc2)cc(C)c1Oc1ccnc(Nc2ccc(C#N)cc2)n1 [TF8, 4-((4-(4-((4-(hydroxymethyl)phenoxy)methyl)-2,6-dimethylphenoxy)pyrimidin-2-yl)amino)benzonitrile] | 42.8 ± 5.6 nM | 68.1 | > 2920 nM | 2920 ± 272 nM | 329 ± 56.7 nM | 110 ± 4.6 nM | 2.56 | 667 ± 78 nM | 886 ± 20.1 nM | 148 ± 4.6 nM | 853 ± 81.4 nM | 1419 ± 9.7 nM | 41 ± 1 nM | 209 to 212 °C
Cc1cc(COc2ccc(F)nc2)cc(C)c1Oc1ccnc(Nc2ccc(C#N)cc2)n1 [TF14, 4-((4-(4-(((6-fluoropyridin-3-yl)oxy)methyl)-2,6-dimethylphenoxy)pyrimidin-2-yl)amino)benzonitrile] | 23.6 ± 3.8 nM | 1034.6 | > 24400 nM | 24400 nM | 185 ± 11.6 nM | 36.7 ± 3.7 nM | 1.54 | 286 ± 52.1 nM | 774 ± 39.2 nM | 67.4 ± 8.1 nM | 999 ± 126 nM | 1190 ± 182 nM | 41 ± 3 nM | 185 to 188 °C
Cc1cc(COc2cccnc2)cc(C)c1Oc1ccnc(Nc2ccc(C#N)cc2)n1 [TF11, 4-((4-(2,6-Dimethyl-4-((pyridin-3-yloxy)methyl)phenoxy)pyrimidin-2-yl)amino) benzonitrile] | 199 ± 13 nM | 74.5 | > 14800 nM | 14800 nM | 9574 ± 22.2 nM | 444 ± 68.6 nM | 2.23 | > 14800 nM | > 14800 nM | ≥ 3020 nM | > 14800 nM | > 14800 nM | 483 ± 30 nM | 237 to 240 °C
Cc1cc(COc2ccc(NC(=O)OC(C)(C)C)cc2)cc(C)c1Oc1ccnc(Nc2ccc(C#N)cc2)n1 [TF16, (4-((4-((2-((4-cyanophenyl)amino)pyrimidin-4-yl)oxy)-3,5-dimethylbenzyl)oxy)phenyl)carbamic acid tert-butyl ester] | 45.3 ± 14.1 nM | 136.7 | > 6200 nM | 6200 ± 220 nM | 715 ± 184 nM | 132 ± 28.4 nM | 2.93 | 1270 ± 154 nM | > 6200 nM | 246 ± 30.4 nM | ≥ 1620 nM | > 6200 nM | 160 ± 1 nM | 184 to 187 °C
Cc1cc(COc2ccccc2C#N)cc(C)c1Oc1ccnc(Nc2ccc(C#N)cc2)n1 [TF4, 2-((4-((2-((4-cyanophenyl)amino)pyrimidin-4-yl)oxy)-3,5-dimethylbenzyl)oxy) benzonitrile] | 7.8 ± 1 nM | – | > 5290 nM | 5290 ± 356 nM | 315 ± 30.7 nM | 75.9 ± 13.9 nM | 9.74 | 482 ± 42.6 nM | > 5300 nM | 103 ± 6.8 nM | 1280 ± 303 nM | > 5300 nM | 50 ± 2 nM | –
